Measurements as given in the NIST ThermoML archive (doi:10.1021/je900347f).

Test: excess molar enthalpy (molar enthalpy of mixing); xn = mol fraction of the nth substance listed
Details: 308.15 K, 101 kPa, Liquid, Flow calorimetry

C1CCNCC1 [piperidine] + C1CCCCC1
Details	excess molar enthalpy [kJ/mol]
x2 = 0.101	0.258
x2 = 0.201	0.476
x2 = 0.3	0.65
x2 = 0.4	0.78
x2 = 0.499	0.845
x2 = 0.601	0.847
x2 = 0.679	0.795
x2 = 0.801	0.635
x2 = 0.901	0.391

C1CCNCC1 [piperidine] + C1CCOCC1
Details	excess molar enthalpy [kJ/mol]
x2 = 0.102	0.104
x2 = 0.196	0.182
x2 = 0.301	0.243
x2 = 0.397	0.279
x2 = 0.497	0.292
x2 = 0.598	0.284
x2 = 0.7	0.251
x2 = 0.801	0.194
x2 = 0.893	0.116

C1CCOCC1 [tetrahydropyran] + C1CCCCC1
Details	excess molar enthalpy [kJ/mol]
x2 = 0.101	0.157
x2 = 0.2	0.294
x2 = 0.3	0.412
x2 = 0.4	0.49
x2 = 0.499	0.526
x2 = 0.606	0.519
x2 = 0.699	0.461
x2 = 0.8	0.355
x2 = 0.9	0.198
